Target: T1, human SLC6A19 (Homo sapiens, UniProt Q695T7)
T1 construct: expressed in transfected cells
T1 sequence (Q695T7 1-634): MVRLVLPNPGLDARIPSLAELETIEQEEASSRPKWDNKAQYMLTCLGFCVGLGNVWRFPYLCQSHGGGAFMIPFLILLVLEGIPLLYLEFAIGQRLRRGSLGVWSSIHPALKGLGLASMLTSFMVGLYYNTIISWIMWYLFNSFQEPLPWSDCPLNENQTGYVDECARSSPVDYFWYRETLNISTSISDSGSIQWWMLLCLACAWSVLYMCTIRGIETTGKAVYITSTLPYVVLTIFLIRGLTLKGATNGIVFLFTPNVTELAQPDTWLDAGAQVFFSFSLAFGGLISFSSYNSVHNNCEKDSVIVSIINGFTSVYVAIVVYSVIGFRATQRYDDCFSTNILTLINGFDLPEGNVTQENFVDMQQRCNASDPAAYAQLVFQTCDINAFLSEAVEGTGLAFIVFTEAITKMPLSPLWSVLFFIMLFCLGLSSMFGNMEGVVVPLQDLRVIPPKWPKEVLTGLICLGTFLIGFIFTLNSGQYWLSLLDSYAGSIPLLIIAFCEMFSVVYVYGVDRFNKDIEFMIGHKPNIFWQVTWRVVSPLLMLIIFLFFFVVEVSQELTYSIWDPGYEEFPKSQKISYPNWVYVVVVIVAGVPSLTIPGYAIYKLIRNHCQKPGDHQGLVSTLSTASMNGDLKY
T1 sequence (Q9HBJ8 15-222 partner): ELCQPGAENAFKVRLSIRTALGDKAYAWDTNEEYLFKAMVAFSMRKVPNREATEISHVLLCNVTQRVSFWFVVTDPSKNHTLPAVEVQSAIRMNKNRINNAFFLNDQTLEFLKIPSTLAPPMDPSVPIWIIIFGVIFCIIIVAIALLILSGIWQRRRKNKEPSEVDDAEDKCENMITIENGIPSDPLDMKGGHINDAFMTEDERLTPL
Assay: Example B2: 13C6,15N-isoleucine uptake, RapidFire mass spectrometry, in CHO cells with doxycycline-inducible expression of human SLC6A19 and TMEM27
Type: cell-based
Conditions: read-out: SLC6A19_RapidFire Uptake Assay IC50
Procedure, shortened: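 CHO cells were induced with doxycycline to express human SLC6A19 with TMEM27, then pre-incubated 20 min at 37 °C with compounds (2-fold, 10-point, duplicate). Uptake of 13C6,15N-isoleucine (2 mM solution added) over a further 20 min was measured by RapidFire mass spectrometry, using 13C-leucine as internal standard.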

Structure (SMILES) | IC50
CN(C(=O)NCc1cc2cc(Cl)ccc2[nH]1)[C@@H]1CCCN(c2ccon2)C1 [Compound 151, (R)-3-((5-chloro-1H-indol-2-yl)methyl)-1-(1-(isoxazol-3-yl)piperidin-3-yl)-1-methylurea] | 40.4 nM
CCc1cc2[nH]c(CNC(=O)N(C)[C@@H]3CCCN(C(C)=O)C3)cc2cc1Cl [Compound 152, (R)-1-(1-acetylpiperidin-3-yl)-3-((5-chloro-6-ethyl-1H-indol-2-yl)methyl)-1-methylurea] | 171 nM
COc1cc2[nH]c(CNC(=O)N(C)[C@@H]3CCCN(C(C)=O)C3)cc2cc1Cl [Compound 153, (R)-1-(1-acetylpiperidin-3-yl)-3-((5-chloro-6-methoxy-1H-indol-2-yl)methyl)-1-methylurea] | 504 nM
CC(=O)N1CCC[C@@H](N(C)C(=O)NCc2cc3cc(Cl)c(Cl)cc3[nH]2)C1 [Compound 154, (R)-1-(1-acetylpiperidin-3-yl)-3-((5,6-dichloro-1H-indol-2-yl)methyl)-1-methylurea] | 173 nM
CCOc1cc2[nH]c(CNC(=O)N(C)[C@@H]3CCCN(C(C)=O)C3)cc2cc1Cl [Compound 155, (R)-1-(1-acetylpiperidin-3-yl)-3-((5-chloro-6-ethoxy-1H-indol-2-yl)methyl)-1-methylurea] | 537 nM
CC(=O)N1CCC[C@@H](N(C)C(=O)NCc2cc3cc(F)c(F)cc3[nH]2)C1 [Compound 156, (R)-1-(1-acetylpiperidin-3-yl)-3-((5,6-difluoro-1H-indol-2-yl)methyl)-1-methylurea] | 282 nM
CC(=O)N1CCC[C@@H](N(C)C(=O)NCc2cc3cc(C)c(Cl)cc3[nH]2)C1 [Compound 157, (R)-1-(1-acetylpiperidin-3-yl)-3-((6-chloro-5-methyl-1H-indol-2-yl)methyl)-1-methylurea] | 194 nM
COC(=O)N1CCC[C@@H](N(C)C(=O)NCc2cc3cc(Cl)ccc3[nH]2)C1 [Compound 158, methyl (R)-3-(3-((5-chloro-1H-indol-2-yl)methyl)-1-methylureido)piperidine-1-carboxylate] | 113 nM
CC(=O)N1CCC[C@@H](N(C)C(=O)NCc2cc3cc(Cl)c(F)cc3[nH]2)C1 [Compound 159, (R)-1-(1-acetylpiperidin-3-yl)-3-((5-chloro-6-fluoro-1H-indol-2-yl)methyl)-1-methylurea] | 179 nM
CC(=O)N1CCC[C@@H](N(C)C(=O)NCc2cc3ccc(F)cc3[nH]2)C1 [Compound 160, (R)-1-(1-acetylpiperidin-3-yl)-3-((6-fluoro-1H-indol-2-yl)methyl)-1-methylurea] | 708 nM
CC(=O)N1CCC[C@@H](N(C)C(=O)NCc2cc3cc(F)ccc3[nH]2)C1 [Compound 161, (R)-1-(1-acetylpiperidin-3-yl)-3-((5-fluoro-1H-indol-2-yl)methyl)-1-methylurea] | 493 nM
COc1ccc2cc(CNC(=O)N(C)[C@@H]3CCCN(C(C)=O)C3)[nH]c2c1 [Compound 162, (R)-1-(1-acetylpiperidin-3-yl)-3-((6-methoxy-1H-indol-2-yl)methyl)-1-methylurea] | 6780 nM
CC(=O)N1CCC[C@@H](N(C)C(=O)NCc2cc3cc(F)c(Cl)cc3[nH]2)C1 [Compound 164, (R)-1-(1-acetylpiperidin-3-yl)-3-((6-chloro-5-fluoro-1H-indol-2-yl)methyl)-1-methylurea] | 351 nM
CC(=O)N1CCC[C@@H](N(C)C(=O)NCc2cc3[nH]ccc3cc2Cl)C1 [Compound 165, (R)-1-(1-acetylpiperidin-3-yl)-3-((5-chloro-1H-indol-6-yl)methyl)-1-methylurea] | 8030 nM
CCN(C(=O)NCc1cc2cc(F)ccc2[nH]1)[C@@H]1CCCN(C(C)=O)C1 [Compound 166, (R)-1-(1-acetylpiperidin-3-yl)-1-ethyl-3-((5-fluoro-1H-indol-2-yl)methyl)urea] | 168 nM
CCN(C(=O)NCc1cc2cc(Cl)c(OC)cc2[nH]1)[C@@H]1CCCN(C(C)=O)C1 [Compound 167, (R)-1-(1-acetylpiperidin-3-yl)-3-((5-chloro-6-methoxy-1H-indol-2-yl)methyl)-1-ethylurea] | 103 nM
CC(=O)N1CCC[C@@H](N(C)C(=O)NCc2cc3[nH]cc(C)c3cc2F)C1 [Compound 168, (R)-1-(1-acetylpiperidin-3-yl)-3-((5-fluoro-3-methyl-1H-indol-6-yl)methyl)-1-methylurea] | 651 nM

Structure (SMILES) | IC50
CCN(C(=O)NCc1cc2cc(F)c(F)cc2[nH]1)[C@@H]1CCCN(C(C)=O)C1 [Compound 169, (R)-1-(1-acetylpiperidin-3-yl)-3-((5,6-difluoro-1H-indol-2-yl)methyl)-1-ethylurea] | 97.8 nM
CCN(C(=O)NCc1cc2cc(Cl)c(F)cc2[nH]1)[C@@H]1CCCN(C(C)=O)C1 [Compound 170, (R)-1-(1-acetylpiperidin-3-yl)-3-((5-chloro-6-fluoro-1H-indol-2-yl)methyl)-1-ethylurea] | 45.1 nM
CC(=O)N1CCC[C@@H](N(C)C(=O)NCc2cc3ccc(C#N)cc3[nH]2)C1 [Compound 172, (R)-1-(1-acetylpiperidin-3-yl)-3-((6-cyano-1H-indol-2-yl)methyl)-1-methylurea] | 10900 nM
CN(C(=O)NCc1cc2cc(Cl)ccc2[nH]1)[C@@H]1CCCN(C(=O)N2CCC2)C1 [Compound 173, (R)-1-(1-(azetidine-1-carbonyl)piperidin-3-yl)-3-((5-chloro-1H-indol-2-yl)methyl)-1-methylurea] | 314 nM
CC(=O)N1CCC[C@@H](N(C)C(=O)NCc2cc3cc(C)c(C#N)cc3[nH]2)C1 [Compound 174, (R)-1-(1-acetylpiperidin-3-yl)-3-((6-cyano-5-methyl-1H-indol-2-yl)methyl)-1-methylurea] | 2790 nM
CC(=O)N1CCC[C@@H](N(C)C(=O)NCc2cc3cc(C)cc(CO)c3[nH]2)C1 [Compound 175, (R)-1-(1-acetylpiperidin-3-yl)-3-((7-(hydroxymethyl)-5-methyl-1H-indol-2-yl)methyl)-1-methylurea] | 20900 nM
CC(=O)N1CCC[C@@H](N(C)C(=O)NCc2[nH]c3ccc(Cl)cc3c2Cl)C1 [Compound 176, (R)-1-(1-acetylpiperidin-3-yl)-3-((3,5-dichloro-1H-indol-2-yl)methyl)-1-methylurea] | 30.7 nM
Cc1cc(N2CCC[C@@H](N(C)C(=O)NCc3cc4cc(Cl)ccc4[nH]3)C2)no1 [Compound 177, (R)-3-((5-chloro-1H-indol-2-yl)methyl)-1-methyl-1-(1-(5-methylisoxazol-3-yl)piperidin-3-yl)urea] | 122 nM
CNc1cc(Cl)cc2cc(CNC(=O)N(C)[C@@H]3CCCN(C(C)=O)C3)[nH]c12 [Compound 178, (R)-1-(1-acetylpiperidin-3-yl)-3-((5-chloro-7-(methylamino)-1H-indol-2-yl)methyl)-1-methylurea] | 1570 nM
COc1cc2[nH]c(CNC(=O)N(C)[C@@H]3CCCN(C(C)=O)C3)cc2cc1C [Compound 179, (R)-1-(1-acetylpiperidin-3-yl)-3-((6-methoxy-5-methyl-1H-indol-2-yl)methyl)-1-methylurea] | 1210 nM
CN(C(=O)NCc1cc2cc(Cl)ccc2[nH]1)[C@@H]1CCCN(C(=O)C(C)(C)O)C1 [Compound 180, (R)-3-((5-chloro-1H-indol-2-yl)methyl)-1-(1-(2-hydroxy-2-methylpropanoyl)piperidin-3-yl)-1-methylurea] | 2790 nM
CN(C(=O)NCc1cc2cc(Cl)ccc2[nH]1)[C@@H]1CCCN(C(=O)N2CCCC2)C1 [Compound 181, (R)-3-((5-chloro-1H-indol-2-yl)methyl)-1-methyl-1-(1-(pyrrolidine-1-carbonyl)piperidin-3-yl)urea] | 795 nM
CC(=O)N1CCC[C@@H](N(C)C(=O)NCc2cc3cc(Cl)c(C#N)cc3[nH]2)C1 [Compound 182, (R)-1-(1-acetylpiperidin-3-yl)-3-((5-chloro-6-cyano-1H-indol-2-yl)methyl)-1-methylurea] | 2930 nM
C[C@H](O)C(=O)N1CCC[C@@H](N(C)C(=O)NCc2cc3cc(Cl)ccc3[nH]2)C1 [Compound 183, 3-((5-chloro-1H-indol-2-yl)methyl)-1-((R)-1-((S)-2-hydroxypropanoyl)piperidin-3-yl)-1-methylurea] | 852 nM
CC(=O)N1CCC[C@@H](N(C)C(=O)NCc2cc3[nH]ccc3cc2F)C1 [Compound 184, (R)-1-(1-acetylpiperidin-3-yl)-3-((5-fluoro-1H-indol-6-yl)methyl)-1-methylurea] | 3970 nM
CC(=O)N1CCC(C(=O)N2CCC[C@@H](N(C)C(=O)NCc3cc4cc(Cl)ccc4[nH]3)C2)C1 (stereo partly drawn) [Compound 185, 1-((3R)-1-(1-acetylpyrrolidine-3-carbonyl)piperidin-3-yl)-3-((5-chloro-1H-indol-2-yl)methyl)-1-methylurea] | 4400 nM
